Data taken from patent US9708314B2, “Heterocyclic amide compound” (NISSAN CHEMICAL INDUSTRIES, LTD., priority 2013, dated 2017).

Experiments:
Assay type in all cases: in vivo
Monochoria vaginalis = test: Test Example 1: herbicidal activity, application before weed generation in submerged conditions; settings: Application herbicide amount 320 g/ha; Seventeenth Table
Summary of the method: (§1)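 Pre-emergence application to water surface of submerged pots (4 cm depth, alluvial soil) on sowing day, with 2.5-leaf rice transplanted; emulsion diluted to g/ha rates. Grown in greenhouse at 25–30 °C; 0–5 herbicidal/crop-effect score after three weeks.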

[1] = system: Echinochloa oryzacola Vasing.; test: as above; settings: Application herbicide amount 320 g/ha; Seventeenth Table
Summary of the method: as §1

Scirpus juncoides = test: as above; settings: Application herbicide amount 320 g/ha; Seventeenth Table
Summary of the method: as §1

[2] = system: transplanted Oryza sativa; test: Test Example 1: effect on crop, application before weed generation in submerged conditions; settings: Application herbicide amount 320 g/ha; Seventeenth Table
Summary of the method: as §1

[3] = system: directly sowed Oryza sativa; test: Test Example 3: effect on crop by application to foliage (Wagner pot, water depth 0.1-0.5 cm); settings: Nineteenth Table; application to foliage; application herbicide amount 320 g/ha
Summary of the method: (§2)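 Scores (0–5) reflect herbicidal ratio three weeks after a foliar spray: 0 is 5% or less, 5 is 90% or more. Plants had grown 14 days in alluvial soil pots in a 25–30 °C greenhouse before treatment with water-diluted emulsion at a set g/ha.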

[4] = system: Echinochloa crus-galli var. crus-galli; test: Test Example 3: herbicidal effect by application to foliage (Wagner pot, water depth 0.1-0.5 cm); settings: Nineteenth Table; application to foliage; application herbicide amount 320 g/ha
Summary of the method: as §2

Cyperus difformis = test: as above; settings: Nineteenth Table; application to foliage; application herbicide amount 320 g/ha
Summary of the method: as §2

Leptochloa chinensis = test: as above; settings: Nineteenth Table; application to foliage; application herbicide amount 320 g/ha
Summary of the method: as §2

Setaria viridis = test: Test Example 4: herbicidal effect by application to foliage (diluvial soil, plastic box); settings: for G: herbicidal effect on Setaria viridis: application to foliage, application herbicide amount 320 g/ha; for G (Setaria viridis) herbicidal effect grade: Application herbicide amount 320 g/ha, foliage application
Summary of the method: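 Plants were grown in sterilized diluvial soil in a greenhouse at 25-30° C for 14 days, then sprayed on stems and leaves with water-diluted emulsion formulation at set rates in g/ha. Weed control and crop injury were scored 3 weeks after treatment on a 0-5 herbicidal-ratio scale, from 0 (≤5%) to 5 (≥90%).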

Row | SMILES | C: Monochoria vaginalis (herbicidal effect grade) (Monochoria vaginalis) | A: Echinochloa oryzicola Vasing. (herbicidal effect grade) [1] | B: Scirpus juncoides (herbicidal effect grade) (Scirpus juncoides) | a: transplanted Oryza sativa (effect on crop grade) [2] | b (effect on crop grade) [3] | H (herbicidal effect grade) [4] | E (herbicidal effect grade) (Cyperus difformis) | D (herbicidal effect grade) (Leptochloa chinensis) | G: herbicidal effect on Setaria viridis (Setaria viridis) | G (Setaria viridis) herbicidal effect grade (Setaria viridis)
1 | CC(C)Sc1nnc2c(C(=O)Nc3nnnn3C)ccc(C(F)(F)F)n12 [2-025] | 5 (Herbicidal ratio of 90% or more (almost completely withered)) | 5 (Herbicidal ratio of 90% or more (almost completely withered)) | 5 (Herbicidal ratio of 90% or more (almost completely withered)) | 5 (Herbicidal ratio of 90% or more (almost completely withered)) | 5 (Herbicidal ratio of 90% or more (almost completely withered)) | 5 (Herbicidal ratio of 90% or more (almost completely withered)) | 5 (Herbicidal ratio of 90% or more (almost completely withered)) | 5 (Herbicidal ratio of 90% or more (almost completely withered)) | 5 (Herbicidal ratio of 90% or more (almost completely withered)) | –
2 | CC(C)c1nnc2c(C(=O)Nc3nnc(C[S+](C)[O-])o3)ccc(C(F)(F)F)n12 (stereo not drawn) [1-143] | 2 (Herbicidal ratio of 20% or more and less than 40%) | 0 (Herbicidal ratio of 5% or less (almost no effect)) | 0 (Herbicidal ratio of 5% or less (almost no effect)) | 0 (Herbicidal ratio of 5% or less (almost no effect)) | 0 (Herbicidal ratio of 5% or less (almost no effect)) | 4 (Herbicidal ratio of 70% or more and less than 90%) | 4 (Herbicidal ratio of 70% or more and less than 90%) | 2 (Herbicidal ratio of 20% or more and less than 40%) | – | 0 (Herbicidal ratio of 5% or less (almost no effect))
3 | COCCN(C)c1nnc2c(C(=O)Nc3nnc(C)o3)ccc(C(F)(F)F)n12 [1-129] | 3 (Herbicidal ratio of 40% or more and less than 70%) | 5 (Herbicidal ratio of 90% or more (almost completely withered)) | 4 (Herbicidal ratio of 70% or more and less than 90%) | 1 (Herbicidal ratio of 5% or more and less than 20%) | 3 (Herbicidal ratio of 40% or more and less than 70%) | 5 (Herbicidal ratio of 90% or more (almost completely withered)) | 4 (Herbicidal ratio of 70% or more and less than 90%) | 5 (Herbicidal ratio of 90% or more (almost completely withered)) | – | 4 (Herbicidal ratio of 70% or more and less than 90%)
4 | COCCOCc1nnc2c(C(=O)Nc3nnco3)ccc(C(F)(F)F)n12 [1-107] | 5 (Herbicidal ratio of 90% or more (almost completely withered)) | 5 (Herbicidal ratio of 90% or more (almost completely withered)) | 4 (Herbicidal ratio of 70% or more and less than 90%) | 2 (Herbicidal ratio of 20% or more and less than 40%) | 3 (Herbicidal ratio of 40% or more and less than 70%) | 5 (Herbicidal ratio of 90% or more (almost completely withered)) | 5 (Herbicidal ratio of 90% or more (almost completely withered)) | 5 (Herbicidal ratio of 90% or more (almost completely withered)) | – | 5 (Herbicidal ratio of 90% or more (almost completely withered))
5 | Cc1nnc(NC(=O)c2ccc(C(F)(F)F)n3c(N4CCCC4)nnc23)o1 [1-136] | 3 (Herbicidal ratio of 40% or more and less than 70%) | 5 (Herbicidal ratio of 90% or more (almost completely withered)) | 3 (Herbicidal ratio of 40% or more and less than 70%) | 1 (Herbicidal ratio of 5% or more and less than 20%) | 2 (Herbicidal ratio of 20% or more and less than 40%) | 4 (Herbicidal ratio of 70% or more and less than 90%) | 0 (Herbicidal ratio of 5% or less (almost no effect)) | 4 (Herbicidal ratio of 70% or more and less than 90%) | – | 2 (Herbicidal ratio of 20% or more and less than 40%)
6 | CSc1nnc2c(C(=O)Nc3nnnn3C)ccc(C(F)(F)F)n12 [2-013] | 5 (Herbicidal ratio of 90% or more (almost completely withered)) | 5 (Herbicidal ratio of 90% or more (almost completely withered)) | 4 (Herbicidal ratio of 70% or more and less than 90%) | 3 (Herbicidal ratio of 40% or more and less than 70%) | 5 (Herbicidal ratio of 90% or more (almost completely withered)) | 5 (Herbicidal ratio of 90% or more (almost completely withered)) | 5 (Herbicidal ratio of 90% or more (almost completely withered)) | 5 (Herbicidal ratio of 90% or more (almost completely withered)) | 5 (Herbicidal ratio of 90% or more (almost completely withered)) | –
7 | Cn1nnnc1NC(=O)c1ccc(C(F)(F)F)n2c(Br)nnc12 [2-009] | 4 (Herbicidal ratio of 70% or more and less than 90%) | 3 (Herbicidal ratio of 40% or more and less than 70%) | 3 (Herbicidal ratio of 40% or more and less than 70%) | 0 (Herbicidal ratio of 5% or less (almost no effect)) | 4 (Herbicidal ratio of 70% or more and less than 90%) | 5 (Herbicidal ratio of 90% or more (almost completely withered)) | 3 (Herbicidal ratio of 40% or more and less than 70%) | 4 (Herbicidal ratio of 70% or more and less than 90%) | 3 (Herbicidal ratio of 40% or more and less than 70%) | –
8 | CCN(CC)c1nnc2c(C(=O)Nc3nnc(C)o3)ccc(C(F)(F)F)n12 [1-135] | 4 (Herbicidal ratio of 70% or more and less than 90%) | 3 (Herbicidal ratio of 40% or more and less than 70%) | 4 (Herbicidal ratio of 70% or more and less than 90%) | 1 (Herbicidal ratio of 5% or more and less than 20%) | 1 (Herbicidal ratio of 5% or more and less than 20%) | 5 (Herbicidal ratio of 90% or more (almost completely withered)) | 2 (Herbicidal ratio of 20% or more and less than 40%) | 4 (Herbicidal ratio of 70% or more and less than 90%) | – | 3 (Herbicidal ratio of 40% or more and less than 70%)
9 | Cc1nnc(NC(=O)c2ccc(C(F)(F)F)n3c(SCC4CC4)nnc23)o1 [1-115] | 3 (Herbicidal ratio of 40% or more and less than 70%) | 5 (Herbicidal ratio of 90% or more (almost completely withered)) | 4 (Herbicidal ratio of 70% or more and less than 90%) | 0 (Herbicidal ratio of 5% or less (almost no effect)) | 0 (Herbicidal ratio of 5% or less (almost no effect)) | 5 (Herbicidal ratio of 90% or more (almost completely withered)) | 4 (Herbicidal ratio of 70% or more and less than 90%) | 4 (Herbicidal ratio of 70% or more and less than 90%) | – | 5 (Herbicidal ratio of 90% or more (almost completely withered))
10 | Cc1nnc(NC(=O)c2ccc(C(F)(F)F)n3c(C4(C)CC4(Cl)Cl)nnc23)o1 (stereo not drawn) [1-105] | 4 (Herbicidal ratio of 70% or more and less than 90%) | 5 (Herbicidal ratio of 90% or more (almost completely withered)) | 5 (Herbicidal ratio of 90% or more (almost completely withered)) | 0 (Herbicidal ratio of 5% or less (almost no effect)) | 0 (Herbicidal ratio of 5% or less (almost no effect)) | 5 (Herbicidal ratio of 90% or more (almost completely withered)) | 5 (Herbicidal ratio of 90% or more (almost completely withered)) | 5 (Herbicidal ratio of 90% or more (almost completely withered)) | – | 1 (Herbicidal ratio of 5% or more and less than 20%)
